In patent US20080214654A1, “Substituted Benzyloxy-Phenylmethylamide Derivatives” (Bayer HealthCare AG, priority 2004, published 2008):
Where a name gives a salt, the structure may show the parent alone.

Target: T1, human CMR-1 (Homo sapiens, UniProt Q7Z2W7)
T1 construct: expressed in transfected cells
Assay: Measurement of the menthol-induced Ca2+ influx in HEK293 cells expressing CMR-1 receptor (Assay 1)
Type: cell-based
Settings: HEK293 cells stably expressing human CMR-1; preincubation with compound, menthol stimulation; fluo4-AM fluorescence
Text: Measurement of the Menthol-Induced Ca^2+ Influx in […] Cell Expressing CMR-1 Receptor (Assay 1).
A cell-based calcium influx assay using HEK293 cells stably expressing human CMR-1 is used to identify CMR-1 receptor-antagonists. Menthol, a CMR-1 specific agonist, is used for stimulation of these cells, inducing an increase in intracellular calcium. This menthol-induced Ca^2+ increase is traced by fluorescence measurement. Therefore the cells are loaded with fluo4-AM prior to stimulation. For testing inhibitors the cells are preincubated with various concentrations of the compound before menthol stimulation. The potency of potential CMR-1 inhibitors is quantified by measuring decrease of fluorescence.

T1 sequence (Q7Z2W7 whole entry): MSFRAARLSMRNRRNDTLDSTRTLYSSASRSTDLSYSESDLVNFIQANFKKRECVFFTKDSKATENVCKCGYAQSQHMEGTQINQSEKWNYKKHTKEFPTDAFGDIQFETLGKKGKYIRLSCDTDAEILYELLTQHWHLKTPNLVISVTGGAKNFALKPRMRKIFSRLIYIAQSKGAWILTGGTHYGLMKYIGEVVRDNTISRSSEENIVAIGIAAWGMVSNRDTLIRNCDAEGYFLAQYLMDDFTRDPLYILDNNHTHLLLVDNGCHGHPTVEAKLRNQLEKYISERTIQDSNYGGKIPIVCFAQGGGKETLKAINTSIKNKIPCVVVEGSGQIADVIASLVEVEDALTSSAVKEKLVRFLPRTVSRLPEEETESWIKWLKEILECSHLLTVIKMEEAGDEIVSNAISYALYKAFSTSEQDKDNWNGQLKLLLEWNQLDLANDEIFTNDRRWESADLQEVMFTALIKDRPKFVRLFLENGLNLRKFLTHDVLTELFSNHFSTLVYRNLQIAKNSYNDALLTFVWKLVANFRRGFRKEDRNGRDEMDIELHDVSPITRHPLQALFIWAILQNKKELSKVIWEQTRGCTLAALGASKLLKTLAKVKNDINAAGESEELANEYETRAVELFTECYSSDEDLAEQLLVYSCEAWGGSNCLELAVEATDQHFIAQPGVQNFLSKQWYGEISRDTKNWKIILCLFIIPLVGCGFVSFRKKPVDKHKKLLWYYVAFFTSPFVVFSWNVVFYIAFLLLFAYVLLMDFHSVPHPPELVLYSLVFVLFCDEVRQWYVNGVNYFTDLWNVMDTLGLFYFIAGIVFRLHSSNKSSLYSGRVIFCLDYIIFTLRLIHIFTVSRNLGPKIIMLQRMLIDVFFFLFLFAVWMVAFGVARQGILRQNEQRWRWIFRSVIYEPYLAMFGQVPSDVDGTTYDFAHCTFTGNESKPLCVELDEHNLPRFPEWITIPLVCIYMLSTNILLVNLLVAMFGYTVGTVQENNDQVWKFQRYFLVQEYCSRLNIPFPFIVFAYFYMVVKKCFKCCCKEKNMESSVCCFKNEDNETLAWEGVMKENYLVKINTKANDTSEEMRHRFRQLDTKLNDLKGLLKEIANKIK

Compound | IC50 [nM]
COc1cc(CN(CCN)C(=O)c2cccs2)ccc1OCc1ccccc1 [Example 3-1, N-(2-aminoethyl)-N-[4-(benzyloxy)-3-methoxybenzyl]thiophene-2-carboxamide hydrochloride] | 1
COc1cc(CN(CCN)C(=O)c2ccccc2)ccc1OCc1ccccc1 [Example 4-1, N-(2-aminoethyl)-N-[4-(benzyloxy)-3-methoxybenzyl]benzamide trifluoroacetate] | 150
COc1cc(CN(CCCNC(=O)OC(C)(C)C)C(=O)c2cccs2)ccc1OCc1ccc(F)cc1 [Example 10] | 70
COc1cc(CN(CCN)C(=O)c2cccs2)ccc1OCc1ccccc1F [Example 17, N-(2-aminoethyl)-N-{4-[(2-fluorobenzyl)oxy]-3-methoxybenzyl}thiophene-2-carboxamide trifluoroacetate] | 1

Further lines, results first:

IC50 [nM] | Compound
8 | COc1cc(CN(CCN)C(=O)CC(C)(C)C)ccc1OCc1ccc(F)cc1F [Example 20]
40 | COc1cc(CN(Cc2ccccc2)C(=O)c2ccccc2)ccc1OCc1ccc(F)cc1 [Example 38, N-benzyl-N-{4-[(4-fluorobenzyl)oxy]-3-methoxybenzyl}benzamide]
